Experimental data taken from patent US12478694B2, “H2O2-responsive crosslinking near-infrared molecular probe for tumor microenvironment and use therefor” (SOOCHOW UNIVERSITY, priority 2019, dated 2025).

Key:
[1] = Ultraviolet absorption spectrum and fluorescence spectrum of the probe; type: physicochemical; details: probe diluted with methanol to 1 μM
Experimental: (§1) After diluting the H2O2 responsive NIR molecular probe prepared in Example 1 with methanol to a concentration of 1 μM, an ultraviolet-visible absorption spectrometer and a steady-state/transient fluorescence spectrometer were used to measure the ultraviolet absorption spectrum and fluorescence of the probe. Spectrum: The cytotoxicity of the probe to 4T1 was investigated by MTT (thiazole blue) colorimetry.

[2] = tested on: 4T1 mouse breast cancer tumor in BALB/c/nu female nude mice; experiment: NIR fluorescence imaging of the probe at the tumor site in mice; type: in vivo; details: intratumoral injection, 100 μM, 50 μL
Experimental: BALB/c/nu female nude mice inoculated with 4T1 mouse breast cancer cells were randomly divided into two groups with 5 mice in each group. After the tumor on the right forelimb of the mouse grows up, the probes DATC and TC are injected into the tumors of the two groups of nude mice by intratumoral injection, at a concentration of 100 μM (50 μL/each). Then put the probe-injected mice in the small animal IVIS Lumina XRMS live imaging system to observe the changes in the fluorescence intensity of the probe in the nude mouse tumor over time, and calculate the experimental group probe and the control group through the IVIS live imaging analysis software The fluorescence intensity of the probe at different time points at the tumor site in nude mice.

4T1 cells [3] = experiment: Retention of the probe in 4T1 cells treated with hydrogen peroxide, confocal fluorescence; type: cell-based, mouse
Experimental: The 4T1 cells were first treated with 100 μM hydrogen peroxide for 15 min, and then the H2O2 responsive NIR molecular probe DATC prepared in Example 1 was diluted into the cell culture medium, and then added to the 4T1 cell culture dish and incubated (The probe concentration is 5 μM). The sulfhydryl group on the protein in 4T1 cells treated with hydrogen oxide will be oxidized to sulfenic acid. When the probe entered into the tumor cell, the group 3,5-dioxocyclohexane carboxylic acid will interact with sulfenic acid cross-linking forms a CS covalent bond, so that the probe molecule is firmly connected to the macromolecular protein in the tumor cell, thereby prolonging the residence time of the molecular probe in the tumor cell, and improving the imaging effect of the probe molecule.
Based on the method described in Example 2, 4T1 cells were seeded in a confocal small dish, 1.5×10^4 cells per well, and placed in an incubator for 24 hours. After diluting hydrogen peroxide to 100 μM with cell culture medium, it was added to a culture dish of 4T1 cells and incubated for 15 minutes, and then the culture medium was discarded. The H2O2 responsive NIR molecular probe prepared in Example 1 was diluted with a culture medium to a concentration of 5 μM, and then added to the 4T1 cell culture dish, and placed in a cell incubator for 8 hours. After incubation of the probe and 4T1 cell, added new cell culture medium and continue culturing in the incubator for 4h, 8h, 12h and 24h. Then stained the nucleus with Hoechst33342 dye solution, and observed the fluorescence in 4T1 cells at different times after hydrogen peroxide treatment with a laser confocal microscope. The fluorescent probe (TC) without 3,5-dioxocyclohexane carboxylic acid was used as a control example, and a unified experimental method was adopted.

4T1 cells [4] = experiment: Immunofluorescence of the probes in hydrogen peroxide treated 4T1 cells after re-culturing for 12 hours; type: cell-based, mouse; details: 100 μM H2O2 15 min, 5 μM probe 8 h, re-culture 12 hours
Experimental: Based on the method described in Example 2, 4T1 cells were seeded in a confocal small dish, 1.5×10^4 cells per well, and placed in an incubator for 24 hours. After diluting hydrogen peroxide to 100 μM with cell culture medium, it was added to a culture dish of 4T1 cells and incubated for 15 minutes, and then the culture medium was discarded. The H2O2 responsive NIR molecular probe prepared in Example 1 was diluted with a culture medium to a concentration of 5 μM, and then added to a 4T1 cell culture dish, and placed in a cell incubator for 8 hours. After the incubation time of the probe and 4T1 cells is over, add new cell culture medium and continue culturing in the incubator for 12 hours. Subsequently, the cells were fixed with 4% paraformaldehyde at room temperature for 15 minutes, and then washed with PBS; secondly, 0.5% Trition-100 and 4T1 cells were incubated at room temperature for 5 minutes; the antibody anticysteine sulfenic acid was incubated at room temperature. After 1 hour, the antibody was washed with PBS, and then incubated at 37° C. for 30 minutes with goat anti-rabbit-Cy3. Finally, the nucleus was stained with Hoechst 33342 staining solution. […] The fluorescent probe (TC) without 3,5-dioxocyclohexane carboxylic acid was used as a control, and a unified experimental method was adopted.

4T1 = experiment: Cytotoxicity of the probe by MTT (thiazole blue) colorimetry; type: cell-based, mouse; details: 4T1 cells
Experimental: as §1

4T1 cells [5] = experiment: Co-localization of intracellular probe and intracellular mitochondria; type: cell-based, mouse; details: 5 μM probe, incubated 12 hours
Experimental: Based on the method described in Example 2, 4T1 cells were seeded in a confocal small dish with 1.5×10^4 cells per well, placed in an incubator for 24 hours, and then the culture medium was discarded. The H2O2 responsive NIR molecular probe prepared in Example 1 was diluted with a culture medium to a concentration of 5 μM, and then added to a 4T1 cell culture dish, and placed in a cell incubator to incubate for 12 hours. After the probe and 4T1 cell incubation time was over, the cells were incubated with mitochondrial dye and Hoechst 33342 respectively, and the co-localization of the probe with mitochondria in 4T1 cells at the same time was observed using a confocal microscope.

max absorption peak ([1]; UV absorption spectrum): 646 nm
maximum emission ([1]; fluorescence spectrum): 670 nm
Compound: C[N+]1=C(/C=C/C=C/C=C2/N(CCCCCC(=O)NCCCn3cc(CNC(=O)[C@H](CCCCNC(=O)C4CC(=O)CC(=O)C4)NC(=O)CCC[P+](c4ccccc4)(c4ccccc4)c4ccccc4)nn3)c3ccc(S(=O)(=O)O)cc3C2(C)C)C(C)(C)c2cc(S(=O)(=O)O)ccc21 [DATC]
duration of the fluorescent signal at the tumor site [2]: 36 h
fluorescence signal of the probe at the tumor site at 2h ([2]; 2h): only slightly decreased
fluorescence signal of the probe at the tumor site at 12h ([2]; 12h): obvious fluorescence signal
red fluorescence intensity in 4T1 cells 8 hours after washing off the probe, versus control probe (4T1 cells [3]; 100 μM H2O2 15 min, 5 μM probe 8 h, re-culture 8 h): significantly stronger
fluorescence signal in 4T1 cells 24h later (4T1 cells [3]; 100 μM H2O2 15 min, 5 μM probe 8 h, re-culture 24 h): strong fluorescence signal
time the probe can stay in the cell (4T1 cells [3]; fluorescence quantitative data, H2O2-treated 4T1 cells, 5 μM probe): ≥ 24 h
content / fluorescent signal of probe in cells (4T1 cells [4]): relatively high
killing effect on the cells as the concentration increases (4T1): no killing effect on the cells
co-localization of the probe with mitochondria (4T1 cells [5]): basically coincide
